In ChEMBL document CHEMBL5543131, “Discovery of Highly Potent Solute Carrier 13 Member 5 (SLC13A5) Inhibitors for the Treatment of Hyperlipidemia” (J Med Chem, 2024):
Each block holds one molecule with its values, some of them ahead of it.

How the values were obtained:
[1] = Cmax in Sprague-Dawley rat at 50 mg/kg, po measured after 24 hrs by LC-MS/MS analysis; assay type: ADME, organism-based; conditions: in vivo
[2] = AUC (0 to infinity) in Sprague-Dawley rat at 50 mg/kg, po measured after 24 hrs by LC-MS/MS analysis; assay type: ADME, organism-based; conditions: in vivo
[3] = Half-life in Sprague-Dawley rat at 50 mg/kg, po measured after 24 hrs by LC-MS/MS analysis; assay type: ADME, organism-based; conditions: in vivo
[4] = Volume of distribution in Sprague-Dawley rat at 50 mg/kg, po measured after 24 hrs by LC-MS/MS analysis; assay type: ADME, organism-based; conditions: in vivo
[5] = Oral bioavailability in Sprague-Dawley rat at 50 mg/kg measured after 24 hrs by LC-MS/MS analysis; assay type: ADME, organism-based; conditions: in vivo
[6] = AUC (0 to infinity) in Sprague-Dawley rat at 5 mg/kg, iv measured after 24 hrs by LC-MS/MS analysis; assay type: ADME, organism-based; conditions: in vivo
[7] = Half-life in Sprague-Dawley rat at 5 mg/kg, iv measured after 24 hrs by LC-MS/MS analysis; assay type: ADME, organism-based; conditions: in vivo
[8] = Volume of distribution in Sprague-Dawley rat at 5 mg/kg, iv measured after 24 hrs by LC-MS/MS analysis; assay type: ADME, organism-based; conditions: in vivo
[9] = Clearance in Sprague-Dawley rat at 5 mg/kg, iv measured after 24 hrs by LC-MS/MS analysis; assay type: ADME, organism-based; conditions: in vivo
[10] = Clearance in Sprague-Dawley rat at 50 mg/kg, po measured after 24 hrs by LC-MS/MS analysis; assay type: ADME, organism-based; conditions: in vivo
[11] = molecular target: Na(+)/citrate cotransporter (Homo sapiens, UniProt Q86YT5); test: Inhibition of human SLC13A5 transfected in HEK293T cells incubated for 30 mins by D4-citrate uptake assay; assay type: cell-based
[12] = Metabolic stability in human plasma assessed as compound remaining measured after 2 hrs by LC-MS/MS analysis; assay type: ADME, cell-free; conditions: read-out: Stability
[13] = Metabolic stability in rat liver microsome assessed as compound remaining measured after 2 hrs in presence of NADPH by LC-MS/MS analysis; assay type: ADME; conditions: liver microsomes, read-out: Stability
[14] = Metabolic stability in human liver microsome assessed as compound remaining measured after 2 hrs in presence of NADPH by LC-MS/MS analysis; assay type: ADME; conditions: microsomes
[15] = Drug accumulation in Sprague-Dawley rat liver at 5 mg/kg, po measured after 2 hrs by LC-MS/MS analysis; assay type: ADME, organism-based; conditions: in vivo
[16] = Drug accumulation in Sprague-Dawley rat prostate gland at 5 mg/kg, po measured after 2 hrs by LC-MS/MS analysis; assay type: ADME, organism-based; conditions: in vivo
[17] = Drug accumulation in Sprague-Dawley rat brain at 5 mg/kg, po measured after 2 hrs by LC-MS/MS analysis; assay type: ADME, organism-based; conditions: in vivo
HepG2 = test: Cytotoxicity against human HepG2 cells; assay type: toxicity, cell-based
Huh-7 = test: Cytotoxicity against human Huh-7 cells; assay type: toxicity, cell-based
HEK-293T = test: Cytotoxicity against HEK293T cells; assay type: toxicity, cell-based; conditions: human
[18] = Tmax in Sprague-Dawley rat at 50 mg/kg, po measured after 24 hrs by LC-MS/MS analysis; assay type: ADME, organism-based; conditions: in vivo
[19] = Toxicity in C57BL/6J mouse assessed as animal death at 100 mg/kg; assay type: organism-based; conditions: in vivo
[20] = Acute toxicity in C57BL/6J mouse at 50 to 300 mg/kg measured after 7 days; assay type: organism-based; conditions: in vivo, 168 h, dose 50-300 mg/kg, time 7 day

Na(+)/citrate cotransporter, sequence (Q86YT5 whole entry): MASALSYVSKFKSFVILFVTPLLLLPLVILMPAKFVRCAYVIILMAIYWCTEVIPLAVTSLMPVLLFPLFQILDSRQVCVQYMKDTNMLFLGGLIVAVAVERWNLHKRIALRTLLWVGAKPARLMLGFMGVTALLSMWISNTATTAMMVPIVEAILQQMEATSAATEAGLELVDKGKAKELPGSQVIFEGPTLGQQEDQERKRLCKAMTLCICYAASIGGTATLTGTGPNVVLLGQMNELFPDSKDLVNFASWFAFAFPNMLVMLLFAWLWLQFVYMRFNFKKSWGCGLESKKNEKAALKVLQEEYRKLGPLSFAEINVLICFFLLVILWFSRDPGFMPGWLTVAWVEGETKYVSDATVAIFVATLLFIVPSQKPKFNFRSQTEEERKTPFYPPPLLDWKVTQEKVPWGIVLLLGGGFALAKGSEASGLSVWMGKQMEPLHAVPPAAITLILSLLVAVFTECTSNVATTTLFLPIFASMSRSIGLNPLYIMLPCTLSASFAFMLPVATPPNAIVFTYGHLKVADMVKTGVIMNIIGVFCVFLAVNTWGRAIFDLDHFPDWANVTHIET

Cmax [1]: 1.36 µg/mL | AUC(0-inf) [2]: 10600 ng·h/mL | half-life [3]: 12.4 h | Vd [4]: 83.96 L/kg | bioavailability [5]: 1.83% | AUC(0-inf) [6]: 40400 ng·h/mL | half-life [7]: 2.61 h | Vd [8]: 0.69 L/kg | clearance [9]: 2 mL/min/kg | CL/F [10]: 80.8 mL/min/kg
SMILES: CC(C)(C)c1ccc(CC[C@@](O)(CC(=O)O)C(=O)O)cc1

IC50 [11]: 350 nM
SMILES: O=C(O)CC(O)(CCc1ccc(-c2cccc3c2NCCC3)cc1)C(=O)O (stereo unspecified)

IC50 [11]: 150 nM
SMILES: O=C(O)CC(O)(CCc1ccc(-c2cccc(C(F)(F)F)c2)cc1)C(=O)O (stereo unspecified)

IC50 [11]: 310 nM
SMILES: CCOc1cccc(-c2ccc(CCC(O)(CC(=O)O)C(=O)O)cc2)c1 (stereo unspecified)

IC50 [11]: 1180 nM
SMILES: O=C(O)CC(O)(CCc1ccc(-c2ccn[nH]2)cc1)C(=O)O (stereo unspecified)

SMILES: O=C(O)CC(O)(CCc1ccc(-c2ccccc2)cc1)C(=O)O (stereo unspecified)
IC50 [11]: 67 nM | remaining at 2 h [12]: > 60% | remaining at 2 h [13]: > 60% | Stability [14]: Stable | Drug uptake [15]: Active | Drug uptake [16]: Active | Drug uptake [17]: Not Active | Activity (HepG2): Non-Toxic | Activity (Huh-7): Non-Toxic | Activity (HEK-293T): Non-Toxic | Cmax [1]: 288 µg/mL | AUC(0-inf) [2]: 705000 ng·h/mL | half-life [3]: 1.09 h | Vd [4]: 0.11 L/kg | bioavailability [5]: 48.7% | AUC(0-inf) [6]: 145000 ng·h/mL | half-life [7]: 0.69 h | Vd [8]: 0.03 L/kg | clearance [9]: 0.667 mL/min/kg | CL/F [10]: 1.17 mL/min/kg | Tmax [18]: 0.76 h | Activity [19]: Non-Toxic | Activity [20]: Non-Toxic

IC50 [11]: 290 nM
SMILES: COc1ccccc1-c1ccc(CCC(O)(CC(=O)O)C(=O)O)cc1 (stereo unspecified)

IC50 [11]: 440 nM
SMILES: CC(C)Oc1cccc(-c2ccc(CCC(O)(CC(=O)O)C(=O)O)cc2)c1 (stereo unspecified)

IC50 [11]: 130 nM | remaining at 2 h [12]: > 60% | remaining at 2 h [13]: > 60%
SMILES: CCn1nccc1-c1ccc(CCC(O)(CC(=O)O)C(=O)O)cc1 (stereo unspecified)

IC50 [11]: 340 nM
SMILES: COc1cccc(-c2ccc(CCC(O)(CC(=O)O)C(=O)O)cc2)c1 (stereo unspecified)

IC50 [11]: 190 nM
SMILES: O=C(O)CC(O)(CCc1ccc(-c2cccc(OC(F)(F)F)c2)cc1)C(=O)O (stereo unspecified)

IC50 [11]: 210 nM
SMILES: O=C(O)CC(O)(CCc1ccc(-c2ccccc2C(F)(F)F)cc1)C(=O)O (stereo unspecified)

IC50 [11]: 73 nM | remaining at 2 h [12]: > 60% | remaining at 2 h [13]: > 60%
SMILES: O=C(O)CC(O)(CCc1ccc2ccccc2c1)C(=O)O (stereo unspecified)

IC50 [11]: 860 nM
SMILES: COc1cc(-c2ccc(CCC(O)(CC(=O)O)C(=O)O)cc2)ccn1 (stereo unspecified)

IC50 [11]: 860 nM
SMILES: O=C(O)CC(O)(CCc1ccc(N2CCOCC2)cc1)C(=O)O (stereo unspecified)

IC50 [11]: 160 nM | remaining at 2 h [12]: > 60% | remaining at 2 h [13]: > 60%
SMILES: O=C(O)CC(O)(CCc1nc2ccccc2s1)C(=O)O (stereo unspecified)

IC50 [11]: 1970 nM
SMILES: Cn1nccc1-c1ccc(CCC(O)(CC(=O)O)C(=O)O)cc1 (stereo unspecified)

IC50 [11]: 110 nM
SMILES: O=C(O)CC(O)(CCc1ccc(-c2ccc3c(c2)OCO3)cc1)C(=O)O (stereo unspecified)

IC50 [11]: 270 nM
SMILES: CCCOc1cccc(-c2ccc(CCC(O)(CC(=O)O)C(=O)O)cc2)c1 (stereo unspecified)
